# Measurements reported in patent publication US8158829B2, “Organic sulfur compound and its use for controlling harmful arthropod” (Sumitomo Chemical Company, Limited, priority 2007, dated 2012).
# System: Blattella germanica
# Assay: Test Example 3: filter paper with sucrose bait, Blattella germanica male imagoes
# Format: in vivo
# Details: 500 ppm, 0.7 ml on filter paper; 2 male imagoes; after 6 days
# Protocol: Preparations of the present compounds (2), (3), (5) and (6) obtained according to Formulation Example 11 were diluted so that the active ingredient concentration was 500 ppm to obtain test solutions.
# A filter paper having a diameter of 5.5 cm was spread on the bottom of a polyethylene cup having a diameter of 5.5 cm and 0.7 ml of the test solution was added dropwise onto the filter paper. As a bait 30 mg of sucrose was uniformly placed on the filter paper. Into the polyethylene cup, 2 male imagoes of Blattella germanica were released and the cup was sealed with a lid. After 6 days, the number of surviving Blattella germanica was examined and the death rate of the pest was calculated.
row,Structure (SMILES),death rate of the pest [%]
1,"COC(=O)C(Cl)(CCC(F)(Cl)C(F)(F)Cl)S(=O)(=O)CCC(F)(F)F (stereo not shown) [present compound (2), methyl 2,5,6-trichloro-5,6,6-trifluoro-2-(3,3,3-trifluoropropylsulfonyl)hexanoate]",100
2,"NC(=O)C(Cl)(CCC(F)(Cl)C(F)(F)Cl)S(=O)(=O)CCC(F)(F)F (stereo not shown) [present compound (3), 2,5,6-trichloro-5,6,6-trifluoro-2-(3,3,3-trifluoropropylsulfonyl)hexanamide]",100
3,"COC(=O)C(Cl)(CCC(F)(F)C(F)(F)Br)S(=O)(=O)CCC(F)(F)F (stereo not shown) [present compound (5), methyl 6-bromo-2-chloro-5,5,6,6-tetrafluoro-2-(3,3,3-trifluoropropylsulfonyl)hexanoate]",100
4,"NC(=O)C(Cl)(CCC(F)(F)C(F)(F)Br)S(=O)(=O)CCC(F)(F)F (stereo not shown) [present compound (6), 6-bromo-2-chloro-5,5,6,6-tetrafluoro-2-(3,3,3-trifluoropropylsulfonyl)hexanamide]",100
